Activity calls are given as the source filed them.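 Rule for the calls: active = cytostatic effect above 60% on a scale from DMSO controls to rapamycin controls, holding yeast in G1/G0 phase; inactive = the rest.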

Data on 38 compounds can be found in PubChem BioAssay AID504936 (NMMLSC, 2011).

For the assay, the system named is S. cerevisiae BY4741 DNA content flow cytometry, cell cycle. Description: S. cerevisiae cell cycle DNA content profile – flow cytometry (AID 504936).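 For all read-outs here: yeast exposed to compound for three five or seven days before fixation.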 As to conditions: at 10 µM; for G1/G0 population: stronger effect = higher value; for G2 population: measured here: G2 phase fraction, stronger effect = lower value; for apoptotic population: measured here: apoptotic fraction.

On to `c1ccc2nc3ccccc3nc2c1`, for which the G1/G0 population was 71.8% (inactive), the G2 population worked out at 13.2% and the apoptotic population turned out to be 12.3%.
As to `O=C(Nc1cccc(Cl)c1)Nc1ccc2nccnc2c1`, the G1/G0 population is 77.4% (inactive), the G2 population is 12% and the apoptotic population stood at 8.93%.
For `CC(C)(C)n1nc(-c2ccc(F)cc2)c2c(N)ncnc21`, the G1/G0 population was 70.5% (inactive), the G2 population stood at 3.33% and the apoptotic population came out at 14.9%.
For the compound `O=c1[nH]c(O)c(C=Nc2ccc(F)c(Cl)c2)c(=O)[nH]1`, the G1/G0 population was 78.7% (inactive), the G2 population turned out to be 12.7% and the apoptotic population stood at 7.01%.
Turning to `CCC(=Nc1ccccc1O)C1=C(O)CC(c2ccccc2)CC1=O` (centres undefined), the G1/G0 population is 74.7% (inactive), the G2 population is 12.1% and the apoptotic population came out at 12%.
For `Cn1c(O)c(C(=Nc2ccc(F)cc2)c2ccccc2Cl)c(=O)n(C)c1=O`, the G1/G0 population was 72% (inactive), the G2 population was determined as 14.8% and the apoptotic population came out at 11.1%.
Take `O=C(OCc1c(F)cccc1Cl)c1cnc2ccccc2n1`: the G1/G0 population was 73.8% (inactive), the G2 population stood at 13.8% and the apoptotic population amounted to 10.5%.
Take `Cc1cc(C)c2[nH]c3nc(SCC(=O)O)nnc3c2c1`: the G1/G0 population is 79.8% (inactive), the G2 population stood at 10.9% and the apoptotic population came to 7.85%.
In the case of `Cn1c(=O)[nH]c2nncnc2c1=O`, the G1/G0 population was 73.1% (inactive), the G2 population was determined as 12% and the apoptotic population turned out to be 12.7%.
In the same order, the values of `Oc1cccc2nc3ccccc3nc12` are 43% (inactive), 9.27% and 44%.
On to `N#CC(c1nc2ccccc2nc1N1CCCC1)S(=O)(=O)c1ccccc1` (centres undefined), for which the G1/G0 population was 75.8% (inactive), the G2 population was found to be 11.9% and the apoptotic population worked out at 9.82%.
The like results for `COc1ccc2nc3ccccc3nc2c1` were, in that order, 65.9% (inactive), 12.7% and 18.8%.
In the case of `O=C1c2c(O)ccc(O)c2C(=O)c2c(NCCNCCO)ccc(NCCNCCO)c21`, the G1/G0 population is 0.072% (inactive), the G2 population is 0% and the apoptotic population stood at 99.9%.
For the compound `C#CCSc1ccc(-c2ccc([N+](=O)[O-])cc2)o1`, the G1/G0 population was 79.6% (inactive), the G2 population is 11% and the apoptotic population was 8.02%.
In the same order, the values of `CC(=O)Nc1ccc2nc3ccccc3nc2c1` are 72.9% (inactive), 11.9% and 12.6%.
Turning to `CNc1ccc2nc3ccccc3[n+](C)c2c1`, the G1/G0 population is 52.8% (inactive), the G2 population was determined as 8.35% and the apoptotic population was determined as 36.6%.
In the case of `Cc1cc2nc3ccc(N(C)C)cc3nc2cc1N`, the G1/G0 population was 67.3% (inactive), the G2 population was determined as 5.62% and the apoptotic population is 20.3%.
The like results for `c1ccc2[nH]c3cc4ncnc4cc3nc2c1` were, in that order, 58.6% (inactive), 8.26% and 30.4%.
On to `CCN(CC)C(=O)CSc1nnc(-c2cccc(OC)c2)o1`, for which the G1/G0 population was 70.5% (inactive), the G2 population was 12.1% and the apoptotic population was found to be 15.5%.
As to `COc1ccc2nc3ccccc3nc2c1N`, the G1/G0 population is 56.9% (inactive), the G2 population was 10.2% and the apoptotic population came out at 29.3%.
On to `Cc1ccccc1NC(=O)c1cccc2nc3ccccc3nc12`, for which the G1/G0 population is 72.9% (inactive), the G2 population was found to be 12.2% and the apoptotic population worked out at 13.2%.
Turning to `O=C(CN1CCN(c2ccccn2)CC1)Nc1ccccc1F`, the G1/G0 population is 74% (inactive), the G2 population was determined as 12.1% and the apoptotic population was determined as 12%.
As for `CCCCCNC(=O)C(=O)C1C(=O)Nc2ccccc21` (centres undefined), the G1/G0 population was 71.4% (inactive), the G2 population was 6.62% and the apoptotic population worked out at 20%.
The like results for `CN(C)CCNc1ncnc2c1cnn2-c1ccc(Cl)cc1` were, in that order, 52.4% (inactive), 10.3% and 35.5%.
`O=C(/C=C/c1cccs1)NC(=S)NNC(=O)Cc1cccs1`: the G1/G0 population was 73% (inactive), the G2 population turned out to be 11.1% and the apoptotic population worked out at 14%.
Take `O=C(c1cccc2nc3ccccc3nc12)N1CCOCC1`: the G1/G0 population is 76.5% (inactive), the G2 population is 12.1% and the apoptotic population was found to be 9.75%.
Regarding `COc1cccc2nc3cc(C)c(C)cc3nc12`, the G1/G0 population was 64.8% (inactive), the G2 population turned out to be 11% and the apoptotic population is 21.7%.
On to `Cc1cc(C)cc(NC(=O)CN2CCN(c3ccccn3)CC2)c1`, for which the G1/G0 population is 73.5% (inactive), the G2 population was 12.4% and the apoptotic population amounted to 12.2%.
Take `COc1ccc2nc3ccccc3[n+]([O-])c2c1`: the G1/G0 population was 69.4% (inactive), the G2 population was found to be 13.5% and the apoptotic population turned out to be 15%.
The like results for `CC(C)OC(=O)c1ccc2nc3ccccc3nc2c1` were, in that order, 78.1% (inactive), 12.4% and 7.62%.
As for `O=C(O)c1cnc2ccccc2n1`, the G1/G0 population is 78.8% (inactive), the G2 population turned out to be 12.5% and the apoptotic population turned out to be 7.02%.
In the case of `OCC[n+]1c2ccccc2nc2ccc(N3CCOCC3)cc21`, the G1/G0 population was 74.9% (inactive), the G2 population was found to be 12.4% and the apoptotic population was 11%.
Consider `COc1ccc2nc3ccccc3nc2c1NC(=O)c1ccccc1Cl`, for which the G1/G0 population was 79.9% (inactive), the G2 population worked out at 12.2% and the apoptotic population worked out at 6.11%.
`[O-][n+]1c2ccccc2[n+]([O-])c2cc(O)ccc21`: the G1/G0 population was 48.4% (inactive), the G2 population came to 8.17% and the apoptotic population was 37.1%.
Turning to `O=C(Nc1ccc2nc3ccccc3nc2c1)c1ccc(Br)cc1`, the G1/G0 population was 77.7% (inactive), the G2 population stood at 12.5% and the apoptotic population was determined as 8.37%.
The like results for `CC(C)CSc1nnc2c3ccccc3n(C)c2n1` were, in that order, 75% (inactive), 12% and 11.2%.
`COc1ccc2c(c1)c1nnc(SC)nc1n2C`: the G1/G0 population was 58.9% (inactive), the G2 population came out at 11.7% and the apoptotic population came to 27.7%.
For the compound `N#CCc1nn(-c2ccccc2)c2ncnc(N)c12`, the G1/G0 population was 78.8% (inactive), the G2 population was found to be 10.6% and the apoptotic population worked out at 8.22%.
